Values after ≈ are worked out from the molar mass of the structure shown.
Conditions: buffer; pH 7.4; 200.0 µM

Structure (SMILES) | solubility kinetic [µg/mL]
Cc1cc(=O)cc(C)n1-c1ccc(Cl)cc1 | 34.8 (≈ 149 µM)
CC(C)C(NC(=O)CN1C(=O)c2cccc3cccc1c23)C(C)C | 2.1 (≈ 6.47 µM)
Cc1c(C)c(C)c2[nH]c(=S)[nH]c2c1C | 0.4 (≈ 1.94 µM)
Cc1ccc(CNC(=O)C2CC(=O)N(C3CCCCCC3)C2)cc1 (centres undefined) | 48.8 (≈ 149 µM)
CC(C)CNC(=O)COc1ncnc2sccc12 | > 39.8
Cc1cc(Br)ccc1NC(=S)NC1CCCC1 | 19.1 (≈ 61 µM)
CC1=C(C(=O)OC(C)C)C(c2ccc3c(c2)OCO3)NC(=O)N1 (centres undefined) | 47.3 (≈ 149 µM)
Cc1c(N2C(=O)c3cccc4cccc(c34)C2=O)cnn1C | > 43.7
CC(Sc1ccccn1)C(=O)Nc1ccc2c(c1)OCO2 (centres undefined) | 39 (≈ 129 µM)
Cc1cccc(Cn2cnc3c(sc4nc(C)cc(C)c43)c2=O)c1 | < 0.2
Cc1[nH]c2ccccc2c(=O)c1CN1CCCCCC1 | > 40.6
CCCOc1ncnc2c1[nH]c1ccc(C)cc12 | 0.9 (≈ 3.73 µM)
NC(=S)Nc1cccc(-c2n[nH]c(=S)o2)c1 | > 37.8
COCCCN(CC(=O)O)S(=O)(=O)c1ccccc1 | > 43.1
C=C(C)CN1CCN(c2ccc(N3C(=O)CCCC3=O)cc2[N+](=O)[O-])CC1 | 54 (≈ 145 µM)
CC(=O)c1ccc(NC(=S)NC(=O)/C=C/c2ccco2)cc1 | 1.4 (≈ 4.45 µM)
O=C(Nc1ccc2c(c1)OCCO2)c1cccc(Cl)c1Cl | 35.5 (≈ 110 µM)
Cl.Oc1ccc(CC2(N3CCCC3)CCCCC2)cc1 | 40.5
COc1cc2c(cc1OC)CN(C(=O)COc1ccccc1C#N)CC2 | 15 (≈ 42.6 µM)
CCOC(=O)c1c(C)nc(C)c(C(=O)OCC)c1-c1cccc(N)c1 | 42.1 (≈ 123 µM)
CN1C(=O)c2cccc3c(S(=O)(=O)N4CCCC4C(=O)O)ccc1c23 (centres undefined) | > 54.1
Cc1cc(=O)oc2c(CN3CCN(CCO)CC3)c(O)ccc12 | > 47.8
COCCNC(=O)C(NC(=O)C1CCCCC1)C12CC3CC(CC(C3)C1)C2 (centres undefined) | 5.5 (≈ 14.6 µM)
OC(CN1CCOCC1)(c1ccccc1)c1ccccn1 (centres undefined) | > 42.7
CC1(C)CC2CC(C)(CN2C(=O)COC(=O)c2cccnc2Cl)C1 (centres undefined) | > 52.6
Cc1cccc(C)c1NC(=O)CN(C)C(=O)C1CC1C (centres undefined) | > 41.2

Structure (SMILES) | solubility kinetic [µg/mL]
COCCNC(=O)/C(C#N)=C/c1cc(Br)c(O)c(OC)c1 | 45 (≈ 127 µM)
O=c1c2ccccc2nc(CNCC2CCCO2)n1-c1ccc(F)cc1 (centres undefined) | 44.9 (≈ 127 µM)
O=[N+]([O-])c1ccc(Cl)c(NC2=NCCCCC2)c1 | > 40.2
COCCCNC(=S)N1CCN(C)CC1 | > 34.7
CC(=O)N1CCN(Cc2ccc(Cl)nc2)CC1 | > 38.1
COC(=O)CNC(=O)COC(=O)/C=C/c1ccccc1[N+](=O)[O-] | 41.3 (≈ 128 µM)
CCOCCn1c(=O)c2c(nc3n2CCCN3Cc2ccccc2)n(C)c1=O | > 57.5
NC(=O)c1cccnc1Oc1ccc(Cl)cc1Cl | 37.1 (≈ 131 µM)
COc1ccc(OC)c(C(C)NC(=S)NC2CCCCC2)c1 (centres undefined) | 28 (≈ 86.8 µM)
CCOc1ccc(NC(=O)c2ccc(NC(=O)c3ccc(NC(N)=O)cc3)cc2)cc1 | 2 (≈ 4.78 µM)
Cc1cc(C)c(C(=O)NNC(=O)c2cccnc2)c(C)c1 | > 42.5
C=CCNc1nc(N)c([N+](=O)[O-])c(N2CCCCCC2)n1 | 40.4 (≈ 138 µM)
O=C(c1cccc(Cl)c1)N1CCN(c2ncccn2)CC1 | > 45.4
C[C@@H]1CN(Cc2nc(-c3cccs3)no2)C[C@H](C)O1 | 38 (≈ 136 µM)
CCCCn1c(N)c(N(CC)C(=O)c2ccccc2C)c(=O)[nH]c1=O | 49.5 (≈ 144 µM)
Cc1cc(C)c(C(=O)CSc2nc(C)cc(=O)[nH]2)c(C)c1 | 14 (≈ 46.3 µM)
COc1ccc(/C=C/C2=CC(C)(C)NC(=S)N2)cc1 | 9.4 (≈ 34.3 µM)
Cc1nc(CN(C)Cc2nc(Cc3ccccc3Cl)no2)cs1 | 44.3 (≈ 127 µM)
COc1cccc(CN2CCN(C(=O)Cc3ccccc3OC)CC2)c1 | > 53.2
O=S(=O)(c1ccc2c(c1)CCN2)N1CCOCC1 | > 40.2
c1ccc2nc3c(nc2c1)OCC1CCCCN31 (centres undefined) | 23.5 (≈ 97.4 µM)
CCN(CC)C(=S)Nc1ccc(OC(F)F)cc1 | 40.3 (≈ 147 µM)
C=CCNc1nc2c(c(=O)[nH]c(=O)n2C)n1CCOc1ccccc1 | 3.3 (≈ 9.67 µM)
CCOc1ccc(Cl)cc1CNCCCSc1ncccn1 | 43 (≈ 127 µM)
CC(C)(C)c1ccc(C(=O)O/N=C(\N)c2ccccn2)cc1 | 2.4 (≈ 8.07 µM)
COc1ccccc1NC(=O)/C=C1\NC(=O)CS1 | > 39.6

Second part, the molecule after the results:

solubility kinetic [µg/mL] | Structure (SMILES)
20 (≈ 39.9 µM) | COc1ccccc1NS(=O)(=O)c1ccc(C(=O)NCC(c2cccs2)N2CCOCC2)cc1 (centres undefined)
0.8 (≈ 2.08 µM) | O=S(=O)(Nc1ccc(-c2nc3cccnc3s2)cc1)c1ccccc1F
> 50.4 | O=c1c2[nH]cnc2n(-c2cccc(F)c2)c(=O)n1Cc1ccccc1
0.9 (≈ 2.84 µM) | CC(=O)c1ccccc1NS(=O)(=O)c1cccc2nonc12
> 73 | CCn1c(C)nc2cc(C(=O)NNC(=O)CN(C)S(=O)(=O)c3ccc(NC(C)=O)cc3)ccc21
1.3 (≈ 4.1 µM) | CCOC(=O)c1cc2c(ccn2C)n1Cc1ccc(Cl)cc1
16.9 (≈ 38.1 µM) | O=C(COC(=O)C1CC(=O)N(Cc2ccco2)C1)Nc1nc(-c2ccc(F)cc2)cs1 (centres undefined)
> 49.4 | CSc1ncccc1C(=O)Nc1ccccc1N1CCOCC1
> 51.7 | CCOC(=O)Cc1c(C)nc(Cc2ccc(OC(C)C)cc2)[nH]c1=O
> 38.1 | Cc1ccc(-n2nc(C)cc2NC(=O)CC#N)cc1
< 0.2 | COc1ccc(Cn2cnc3c4cc(F)ccc4n(C)c3c2=O)cc1
16.3 (≈ 43.7 µM) | COc1ccccc1OCCC(=O)OCC(=O)Nc1ccc2c(c1)OCO2
27.7 (≈ 80.9 µM) | Cc1cccc(NC(=S)NCCc2ccc3c(c2)OCCO3)c1C
< 0.7 | CCOC(=O)c1c2c3c(cccc3[nH]c1=O)C(=O)c1ccccc1-2
> 82.3 | CCN(C(=O)COC(=O)CNC(=O)c1ccc(Cl)cc1Cl)c1c(N)n(Cc2ccccc2)c(=O)[nH]c1=O
2.4 (≈ 6.42 µM) | Cc1nc(-c2ccccn2)nc(SCC(=O)c2ccc(F)cc2)c1Cl

solubility kinetic [µg/mL] | Structure (SMILES)
< 0.5 | CCC(C(=O)Nc1ccc(C)cc1)c1ccccc1 (centres undefined)
0.6 (≈ 1.62 µM) | Cc1nc(SCCOc2ccccc2F)[nH]c(=O)c1Cc1ccccc1
> 42.5 | C=CCOc1cccc(CNc2cccc(C(=O)O)c2)c1
> 48.1 | COc1ccc(CCNC(=O)c2cccnc2Cl)cc1OC
> 49.7 | CN1C(C(=O)Nc2ccccn2)=C(O)c2ccccc2S1(=O)=O
6.9 (≈ 20.8 µM) | Cc1ccc(NC(=O)COC(=O)CCc2ccccc2)c(Cl)c1
1.3 (≈ 5.11 µM) | O=C(Nc1nccs1)c1ccc2ccccc2c1
11.2 (≈ 40.4 µM) | COc1ccccc1/C=C/c1ccc2cccc(O)c2n1
3.1 (≈ 9.41 µM) | O=C(c1ccccc1)N1C(=O)C(c2ccccc2)Oc2ccccc21 (centres undefined)
> 31.5 | On1c(-c2ccccc2)nc2ccccc21
15.8 (≈ 53.7 µM) | Cc1cc(C(=O)NCc2ccc(F)cc2)c2ccccc2n1
1.4 (≈ 6.12 µM) | Clc1ccc2nc(-c3ccccc3)cn2c1
33.2 (≈ 140 µM) | CCc1ccccc1Nc1nc2ccccc2[nH]1
49.8 (≈ 142 µM) | CN(Cc1cccc(F)c1)C(=O)c1ccc2c(=O)n3c(nc2c1)CCC3
> 43.2 | O=C(O)CCCn1c(=O)c2cccn2c2ccc(F)cc21
> 45.8 | Cc1ccccc1NS(=O)(=O)c1cccc2nsnc12

From PubChem BioAssay AID1996
